Reference: ChEMBL document CHEMBL1140283, “Novel, potent small-molecule inhibitors of the molecular chaperone Hsp90 discovered through structure-based design” (J Med Chem, 2005)

How the values were obtained:
[1] = system: HCT-116; test: Inhibitory concentration against cell proliferation of human HCT116 cells; assay type: functional
[2] = molecular target: ATP-dependent molecular chaperone HSC82 (Saccharomyces cerevisiae S288c, UniProt P15108); test: Inhibitory concentration against ATPase activity of Hsp90 of Saccharomyces cerevisiae was determined by ATPase activity assay
Sequence of ATP-dependent molecular chaperone HSC82 (P15108 whole entry): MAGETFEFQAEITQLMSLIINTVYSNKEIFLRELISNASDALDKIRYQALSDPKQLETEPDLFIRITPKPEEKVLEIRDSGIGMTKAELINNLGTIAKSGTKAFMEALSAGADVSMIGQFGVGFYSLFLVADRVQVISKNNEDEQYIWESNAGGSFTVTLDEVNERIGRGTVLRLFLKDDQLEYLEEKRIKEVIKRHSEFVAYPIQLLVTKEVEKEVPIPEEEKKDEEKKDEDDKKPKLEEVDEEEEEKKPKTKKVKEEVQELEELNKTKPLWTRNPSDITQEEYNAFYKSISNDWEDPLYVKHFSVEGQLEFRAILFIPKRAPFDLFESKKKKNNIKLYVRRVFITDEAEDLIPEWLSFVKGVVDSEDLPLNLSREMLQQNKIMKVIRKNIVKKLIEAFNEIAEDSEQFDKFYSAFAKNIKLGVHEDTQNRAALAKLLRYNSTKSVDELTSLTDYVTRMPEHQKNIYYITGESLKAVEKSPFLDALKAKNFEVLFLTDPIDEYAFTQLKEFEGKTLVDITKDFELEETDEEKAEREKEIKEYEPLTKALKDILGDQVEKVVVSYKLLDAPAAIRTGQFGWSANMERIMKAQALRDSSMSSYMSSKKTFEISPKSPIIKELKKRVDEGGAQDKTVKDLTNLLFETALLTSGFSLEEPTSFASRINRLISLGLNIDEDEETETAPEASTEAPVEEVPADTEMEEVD

[3] = molecular target: Heat shock protein HSP 90-alpha (Homo sapiens, UniProt P07900); test: Inhibitory concentration against activity of Hsp90 was determined by fluorescence polarization (FP) assay
[4] = system: HCT-116; test: Inhibitory concentration against cell proliferation of human HCT116 cell; assay type: functional
[5] = Homo sapiens, HCT-116, read-out: GI50

SMILES | GI50 [1, 5] [nM] | IC50 [2] [nM] | IC50 [3] [nM] | GI50 [1] [nM] | GI50 [4] [nM]
Cc1n[nH]c(-c2ccc(O)cc2O)c1-c1ccc2c(c1)OCCO2 | 34800 | 23000 | 4730 | – | –
CCNC(=O)c1[nH]nc(-c2cc(Br)c(O)cc2O)c1-c1ccc(OC)cc1 | 938 | 390 | – | – | –
Cc1[nH]nc(-c2cc(Cl)c(O)cc2O)c1-c1ccc2c(c1)OCCO2 | 14900 | 650 | – | – | –
COc1ccc(-c2c(-c3ccc(O)cc3O)n[nH]c2C)cc1 | 33300 | 36900 | – | – | –
COc1ccc(-c2c(C)n[nH]c2-c2cc(Br)c(O)cc2O)cc1 | 6100 | 1900 | 62 | – | –
CCNC(=O)c1[nH]nc(-c2cc(Cl)c(O)cc2O)c1-c1ccc(OC)cc1 | – | 140 | – | – | –
COc1ccc(-c2c(-c3cc(Cl)c(O)cc3O)n[nH]c2C(=O)NC(C)C)cc1 | 1900 | 1500 | 120 | – | –
COc1ccc(-c2c(-c3cc(Cl)c(O)cc3O)n[nH]c2C(N)=O)cc1 | 1100 | 420 | 53 | – | –
COc1ccc(-c2c(C)n[nH]c2-c2cc(Cl)c(O)cc2O)cc1 | 6700 | 1700 | 150 | – | –
CCc1cc(-c2n[nH]c(C)c2-c2ccc3c(c2)OCCO3)c(O)cc1O | 5800 | 5700 | – | – | –
CNC(=O)c1[nH]nc(-c2cc(Cl)c(O)cc2O)c1-c1ccc(OC)cc1 | 680 | 110 | 39 | – | –
COc1ccc(-c2c(-c3cc(Cl)c(O)cc3O)n[nH]c2C(=O)O)cc1 | – | 2300 | 510 | > 80000 | –
C[C@@H]1C[C@H]2O[C@@H]2/C=C\C=C\C(=O)Cc2c(Cl)c(O)cc(O)c2C(=O)O1 [RADICICOL] | – | 200 | – | – | 130
C=CCNC1=C2C[C@@H](C)C[C@H](OC)[C@H](O)[C@@H](C)/C=C(\C)[C@H](OC(N)=O)[C@@H](OC)/C=C\C=C(/C)C(=O)NC(=CC1=O)C2=O [TANESPIMYCIN] | – | 13400 | – | – | 160
